Data set [1] can be described thus: Particle size and PDI of LNPs with different phospholipid lipid contents (Malvern particle size analyzer). Format: physicochemical. As to conditions: Luc-mRNA LNPs, molar ratios of Table 4 (B1-B7); controls with 10 % phospholipid lipid. An excerpt:
(§1) Preparation of lipid nanoparticles: the ionizable lipid (E12LA6B6O3) content was kept at 42.5%, the PEGylated lipid DMG-PEG2000 content was kept at 1.5%, and the phospholipid lipid ratio was adjusted to 15, 12.5, 10, 7.5, 5.0, 2.5, and 0. The increased or decreased molar ratio during adjustment of the phospholipid lipid molar ratio was applied to the cholesterol ratio to verify its effect on the quality control evaluation of lipid nanoparticles and on the in vivo delivery performance of luciferase mRNA. ALC-0315 and SM-102 were used as positive controls. Table 4: Component ratios under different phospholipids
(§2) E12LA6B6O3, phospholipid lipid (DSPC), cholesterol, and PEGylated lipid DMG-PEG2000 were mixed and dissolved in anhydrous ethanol according to the molar ratio in Table 4. The obtained ethanol solution and citric acid buffer (50 mM, pH = 4.0) dissolved with Luc-mRNA (TriLink) were mixed in a microfluidic chip at a volume ratio of 1:3 using a microfluidic preparation system to prepare a crude solution of lipid nanoparticles, which was then dialyzed in 1X PBS at 4°C for 6 h using a dialysis cassette (Fisher, MWCO 20,000). The product was filtered through a 0.22 µm microporous filter membrane before use. The base molar ratio of the amino lipid compound to the luciferase mRNA (Luc mRNA) is about 6.5:1. The quality control of lipid nanoparticles was tested on a Malvern particle size analyzer and an microplate reader, and SM-102 and ALC-0315 (both purchased from AVT (Shanghai) Pharmaceutical Technology Co., Ltd) were added as a control group.

The test system of data set [2] is Balb/C mice. The data set can be described thus: In vivo delivery of luciferase mRNA by tail vein injection of LNPs with different DSPC contents (IVIS Spectrum). Conditions: total fluorescence intensity, 0.1 mg/kg mRNA, 6 hours.
Description: as §1
E12LA6B6O3, phospholipid lipid (DSPC), cholesterol, and PEGylated lipid DMG-PEG2000 were mixed and dissolved in anhydrous ethanol according to the molar ratio in Table 4. […] The quality control of lipid nanoparticles was tested on a Malvern particle size analyzer and an microplate reader, and SM-102 and ALC-0315 (both purchased from AVT (Shanghai) Pharmaceutical Technology Co., Ltd) were added as a control group. […]
In vivo delivery: Three Balb/C mice were randomly selected from each group and injected with lipid nanoparticle solution at a dose of 0.1 mg/kg mRNA via tail vein injection. […] After 10 minutes, the mice were placed under the in vivo imaging system (IVIS Spectrum) to observe the total fluorescence intensity of each mouse and take photos for recording. […]

The nature of data set [3]: Encapsulation efficiency of LNPs with different phospholipid lipid contents (microplate reader). As to conditions: Luc-mRNA LNPs, molar ratios of Table 4 (B1-B7); controls with 10 % phospholipid lipid. Format: physicochemical.
Description: as §1
as §2, with “The product was filtered through a 0.22 µm microporous filter membrane before use. The base molar ratio of the amino lipid compound to the luciferase mRNA (Luc mRNA) is about 6.5:1.” left out

A short description of data set [4]: Encapsulation efficiency of Luc-mRNA lipid nanoparticles (Quant-iT RiboGreen RNA Kit). Format: physicochemical. Conditions: LNP of amino lipid:DSPC:cholesterol:DMG-PEG2000 47.5:10:41:1.5 with Luc-mRNA; lipid to mRNA mass ratio about 40:1. How it is done: (§3) The amino lipid compound of the present invention (or DLin-MC3 or SM-102 (both purchased from AVT (Shanghai) Pharmaceutical Technology Co., Ltd.)), phospholipid lipid (DSPC), cholesterol, and PEGylated lipid (DMG-PEG2000) were mixed and dissolved in anhydrous ethanol at a molar ratio of 47.5:10:41:1.5. The resulting ethanol solution and citric acid buffer (50 mM, pH = 4.0) dissolved with Luc-mRNA (TriLink) were mixed in a microfluidic chip at a volume ratio of 1:3 using a microfluidic preparation system to prepare a crude solution of lipid nanoparticles, which was then dialyzed in 1X PBS at 4°C for 6 h using a dialysis cassette (Fisher, MWCO 20,000). The product was filtered through a 0.22 µm microporous filter membrane before use. The mass ratio of the amino lipid compound to luciferase mRNA (Luc mRNA) was about 40:1.
The encapsulation efficiency was determined according to the standard procedure of the Quant-iT RiboGreen RNA Kit. Table 1 Characterization data of LNPs prepared using representative amino lipid compounds

In data set [5] the test system is primary BMDC cells. In words: Transfection of Luc mRNA lipid nanoparticles on primary BMDC cells (ONE-Glo luciferase readout). Format: cell-based, C57BL/6 mice. As to conditions: expression intensity of Luc mRNA on BMDCs; 10 µL LNP per well, 20,000 cells per well, 12 hours. How it is done: (§4) Animal preparation: 6-week-old female C57BL/6 mice weighing about 20 g were selected and raised in an SPF-grade feeding room. Animal experiments were conducted strictly in accordance with the guidelines of the National Institutes of Health and animal ethics requirements.
Cell acquisition: C57BL/6 mice were sacrificed by cervical dislocation and immersed in 75% alcohol for 5 minutes for disinfection. The thigh and tibia of the mice were dissected and the attached muscles were removed to expose the bone. The bone marrow in the tibia was blown out with a 1 mL syringe filled with PBS. The obtained bone marrow was dispersed by blowing and filtered through a 50 µm filter mesh to remove impurities. Red blood cell lysis solution (3-4 mL) was added to the obtained filtrate and allowed to stand for 5 minutes. Then, the supernatant was removed by centrifugation at 800 g for 5 minutes. The obtained cells were placed in 1640 culture medium (containing 10% fetal bovine serum, 20 ng/mL GMCSF, 10 ng/mL IL4) for being resuspended, and inoculated into 6-well plates at a density of 100,000 cells/mL of culture medium. The plates were placed in a cell culture incubator containing 5% CO2 at 37°C, and the medium was half-changed every 2 days. On the seventh day, the suspended cells and loosely adherent cells were collected and inoculated into 96-well all-white ELISA plates at a density of 20,000 cells per well, with a culture medium volume of 100 µL.
Cell transfection: the lipid nanoparticles encapsulating luciferase mRNA were added to a 96-well all-white ELISA plate with spreaded primary cells, and the volume of mRNA lipid nanoparticles added to each well was controlled to be 10 µL. Then, the plate was placed in an incubator with 5% CO2 concentration at 37°C for 12 hours.
Transfection efficiency detection: 20 µL of substrate ONE-Glo™ Luciferase was added to each well of a 96-well all-white ELISA plate, and the assay was performed using a multifunctional microplate reader (Biorek SynergyH1) after 1 min. The expression intensity of Luc mRNA transfected on BMDCs by lipid nanoparticles (LNPs) composed of representative amino lipid compounds is shown in Table 2, with DLin-MC3 and SM0102 as controls. Table 2 Expression intensity of transfection of representative amino lipid compounds on BMDCs

Data set [6] concerns C57BL/6 mice. The data set can be described thus: In vivo delivery of luciferase mRNA by intramuscular injection of LNPs (IVIS imaging). Conditions: total fluorescence intensity, Luc mRNA LNP, 0.5 mg/kg mRNA, 12 hours. How it is done:
Preparation of lipid nanoparticles: same as Example 36.
as §4
In vivo delivery: Five C57BL/6 mice were randomly selected from each group and injected with lipid nanoparticle solution at a dose of 0.5 mg/kg mRNA by intramuscular injection. Twelve hours later, 200 µL of 10 mg/mL D-luciferin potassium salt was injected into the peritoneal cavity of each mouse. Five minutes later, the mice were placed under an in vivo imaging system (IVIS-200, Xenogen) to observe the total fluorescence intensity of each mouse and take photos for recording. The expression intensity of Luc mRNA delivered by intramuscular injection of LNPs composed of representative amino lipid compounds is shown in Table 3, with DLin-MC3 and SM-102 as controls. Table 3 Expression intensity of Luc mRNA delivered by intramuscular injection of LNPs composed of representative amino lipids

The nature of data set [7]: Particle size and PDI of Luc-mRNA lipid nanoparticles (Nano-ZS ZEN3600, Malvern). Type of data set: physicochemical. Conditions: LNP of amino lipid:DSPC:cholesterol:DMG-PEG2000 47.5:10:41:1.5 with Luc-mRNA; lipid to mRNA mass ratio about 40:1. How it is done: as §3
The particle size and PDI (polydispersity index) of the prepared lipid nanoparticles were measured by Nano-ZSZEN3600 (Malvern). 20 µL of lipid nanoparticle (LNP) solution was taken for particle size measurement, and cycled three times with each cycle for 30 s.

The structures appear in SMILES notation.

For `CCCCCCCCC(CCCCCC)C(=O)OCCCCCCN(CCCCO)CCCCCCOC(=O)C(CCCCCC)CCCCCCCC` (stereo not shown) [ALC-0315], in data set [1], the PDI stood at 0.08 and the “Particle size (nm)” value is listed as 71.3 nm. Also, the Fluorescence intensity in data set [2] is recorded as 1.26E+10. For the same compound, the “Encapsulation efficiency (%)” value in data set [3] was found to be 94.1%.
With `CCCCCCCCCCCOC(=O)CCCCCN(CCO)CCCCCCCC(=O)OC(CCCCCCCC)CCCCCCCC` [SM-102, reference compound], the values for the PDI in data set [1] and in data set [7] were 0.09 and 0.10, respectively. Moreover, in data set [1], the “Particle size (nm)” value turned out to be 91.9 nm. Further, the “Encapsulation efficiency (%)” value was 94.32% in data set [4] and 96.4% in data set [3]. The Luminescence intensity in data set [5] is listed as 1.0E+05. For the same compound, the Fluorescence intensity is listed as 9.86E+9 in data set [2] and 1.4E+09 in data set [6]. The “Average particle size (nm)” value in data set [7] is 79 nm.

The values are drawn from patent publication EP4685136A1, “AMINO LIPID, AND LIPID NANOPARTICLES AND USE THEREOF” (Shenzhen MagicRNA Biotechnology Co., Ltd., priority 2023, dated 2024).
